Experimental data from ChEMBL document CHEMBL1123498, “Structural studies on bioactive compounds. 4. A structure-antitumor activity study on analogues of N-methylformamide” (J Med Chem, 1986).

Key:
[1] = system: Mus musculus; assay: Antitumor activity was evaluated against the TLX5 lymphoma in mice measured for control as death day at a optimal dose 400 mg/Kg/day; type: functional
[2] = system: Mus musculus; assay: Antitumor activity was evaluated against the TLX5 lymphoma measured as mean death day for the treated at a optimal dose 400 mg/Kg/day; type: functional
[3] = system: Mus musculus; assay: Antitumor activity was evaluated against the TLX5 lymphoma in mice measured as treated to control at optimal dose. 800 mg/Kg/day; type: functional
[4] = system: Mus musculus; assay: Antitumor activity was evaluated against the TLX5 lymphoma in mice measured for control as death day at a optimal doses of 800 mg/Kg/day; type: functional
[5] = system: Mus musculus; assay: Antitumor activity was evaluated against the TLX5 lymphoma measured as mean death day for the treated at a optimal dose 800 mg/Kg/day; type: functional
[6] = system: Mus musculus; assay: Antitumor activity was evaluated against the TLX5 lymphoma in mice measured as treated to control at optimal dose. 400 mg/Kg/day; type: functional
[7] = system: Mus musculus; assay: Antitumor activity was evaluated against the M5076 reticulum cell sarcoma in mice measured as Control tumor volume for the treated at the optimal dose 50 mg/Kg/day; type: functional
[8] = system: Mus musculus; assay: Antitumor activity was evaluated against the TLX5 lymphoma in mice measured for control as death day at a optimal dose of 100 mg/Kg/day; type: functional
[9] = system: Mus musculus; assay: Antitumor activity was evaluated against the M5076 reticulum cell sarcoma in mice measured as mean tumor volume for the treated at the optimal dose 50 mg/Kg/day; type: functional
[10] = system: Mus musculus; assay: Antitumor activity was evaluated against the TLX5 lymphoma measured as mean death day for the treated at a optimal dose of 100 mg/Kg/day; type: functional
[11] = system: Mus musculus; assay: Antitumor activity was evaluated against the TLX5 lymphoma in mice measured as treated to control at optimal dose. 100 mg/Kg/day; type: functional
[12] = system: Mus musculus; assay: Antitumor activity was evaluated against the M5076 reticulum cell sarcoma in mice at dose of 200-25 mg/kg per day; type: ADME, organism-based
[13] = system: Mus musculus; assay: Antitumor activity was evaluated for the compound against the M5076 reticulum cell sarcoma in mice and the % T/C(treated/control) value was calculated at optimal dose of 50 mg/kg; type: functional
[14] = system: Mus musculus; assay: Antitumor activity was evaluated against the M5076 reticulum cell sarcoma in mice measured as Control tumor volume for the treated at the optimal dose 100 mg/kg/day; type: functional
[15] = system: Mus musculus; assay: Antitumor activity was evaluated against the M5076 reticulum cell sarcoma in mice measured as Control tumor volume for the treated at the optimal dose 200 mg/Kg/day; type: functional
[16] = system: Mus musculus; assay: Antitumor activity was evaluated against the M5076 reticulum cell sarcoma in mice measured as Control tumor volume for the treated at the optimal dose 25 mg/Kg/day; type: functional
[17] = system: Mus musculus; assay: Antitumor activity was evaluated against the M5076 reticulum cell sarcoma in mice measured as Control tumor volume for the treated at the optimal dose 50 mg/kg/day; type: functional
[18] = system: Mus musculus; assay: Antitumor activity was evaluated against the TLX5 lymphoma in mice measured for control as death day at a optimal dose of 200 mg/Kg/day; type: functional
[19] = system: Mus musculus; assay: Antitumor activity was evaluated against the TLX5 lymphoma in mice measured for control as death day at a optimal dose of 800 mg/Kg/day; type: functional
[20] = system: Mus musculus; assay: Antitumor activity was evaluated against the TLX5 lymphoma in mice measured for control as death day at the below optimal dose 400 mg/Kg/day; type: functional
[21] = system: Mus musculus; assay: Antitumor activity was evaluated against the TLX5 lymphoma in mice measured as treated to control at a optimal dose of 100 mg/Kg/day; type: functional
[22] = system: Mus musculus; assay: Antitumor activity was evaluated against the TLX5 lymphoma in mice measured as treated to control at a optimal dose of 200 mg/Kg/day; type: functional
[23] = system: Mus musculus; assay: Antitumor activity was evaluated against the TLX5 lymphoma in mice measured as treated to control at a optimal dose of 400 mg/Kg/day; type: functional
[24] = system: Mus musculus; assay: Antitumor activity was evaluated against the TLX5 lymphoma in mice measured as treated to control at a optimal dose of 800 mg/Kg/day; type: functional
[25] = system: Mus musculus; assay: Antitumor activity was evaluated against the TLX5 lymphoma measured as mean death day for the treated at a optimal dose of 200 mg/Kg/day; type: functional
[26] = system: Mus musculus; assay: Antitumor activity was evaluated against the TLX5 lymphoma measured as mean death day for the treated at a optimal dose of 400 mg/Kg/day; type: functional
[27] = system: Mus musculus; assay: Antitumor activity was evaluated against the TLX5 lymphoma measured as mean death day for the treated at a optimal dose of 800 mg/Kg/day; type: functional
[28] = system: Mus musculus; assay: Antitumor activity was evaluated against the M5076 reticulum cell sarcoma in mice measured as mean tumor volume for the treated at the optimal dose 100 mg/Kg/day; type: functional
[29] = system: Mus musculus; assay: Antitumor activity was evaluated against the M5076 reticulum cell sarcoma in mice measured as mean tumor volume for the treated at the optimal dose 25 mg/Kg/day; type: functional
[30] = system: Mus musculus; assay: Antitumor activity was evaluated against the M5076 reticulum cell sarcoma in mice at dose of 400-6.25 mg/kg per day; type: ADME, organism-based
[31] = system: Mus musculus; assay: Antitumor activity was evaluated for the compound against the M5076 reticulum cell sarcoma in mice and the % T/C(treated/control) value was calculated at optimal dose of 200 mg/kg; type: functional
[32] = system: Mus musculus; assay: Antitumor activity was evaluated for the compound against the M5076 reticulum cell sarcoma in mice and the % T/C(treated/control) value was calculated at optimal dose of 25 mg/kg; type: functional
[33] = system: Mus musculus; assay: Antitumor activity was evaluated for the compound against the M5076 reticulum cell sarcoma in mice and the % T/C(treated/control) value was calculated at optimal dose of 100 mg/kg; type: functional
[34] = system: Mus musculus; assay: Antitumor activity was evaluated against the M5076 reticulum cell sarcoma in mice at dose of 400-100 mg/kg per day; type: ADME, organism-based
[35] = system: Mus musculus; assay: Antitumor activity was evaluated against the M5076 reticulum cell sarcoma in mice measured as mean tumor volume for the treated at the optimal dose 200 mg/Kg/day; type: functional
[36] = system: Mus musculus; assay: Antitumor activity was evaluated against the M5076 reticulum cell sarcoma in mice measured as Control tumor volume for the treated at the optimal dose 1000 mg/Kg/day; type: functional
[37] = system: Mus musculus; assay: Antitumor activity was evaluated against the M5076 reticulum cell sarcoma in mice measured as mean tumor volume for the treated at the optimal dose 1000 mg/Kg/day; type: functional
[38] = system: Mus musculus; assay: Antitumor activity was evaluated against the M5076 reticulum cell sarcoma in mice at dose of 1500-600 mg/kg per day; type: functional
[39] = system: Mus musculus; assay: Antitumor activity was evaluated for the compound against the M5076 reticulum cell sarcoma in mice and the % T/C(treated/control) value was calculated at optimal dose of 1000 mg/kg; type: functional
[40] = system: Mus musculus; assay: Antitumor activity was evaluated against the M5076 reticulum cell sarcoma in mice at dose of 150-6.25 mg/kg per day; type: ADME, organism-based
[41] = system: Mus musculus; assay: Antitumor activity was evaluated against the M5076 reticulum cell sarcoma in mice measured as Control tumor volume for the treated at the optimal dose 400 mg/Kg day; type: functional
[42] = system: Mus musculus; assay: Antitumor activity was evaluated against the M5076 reticulum cell sarcoma in mice measured as mean tumor volume for the treated at the optimal dose 400 mg/kg day; type: functional
[43] = system: Mus musculus; assay: Antitumor activity was evaluated against the M5076 reticulum cell sarcoma in mice at dose of 800-100 mg/kg per day; type: ADME, organism-based
[44] = system: Mus musculus; assay: Antitumor activity was evaluated against the M5076 reticulum cell sarcoma in mice at dose of 2500-600 mg/kg per day; type: ADME, organism-based

CCNC=O
Control death day [1]: 9.2
Mean day of death [2]: 12.6
T/C [3]: 137%

[2H]C([2H])([2H])NC=O
Control death day [4]: 13.2
Mean day of death [5]: 18.8
T/C [6]: 142%

CN(C)/C=C\[N+](=O)[O-]
Control tumor volume [7]: 1.5
Control death day [8]: 11.1
Mean tumor volume [9]: 0.5
Mean day of death [10]: 15.4
T/C [11]: 139%
LD10 [12]: 55 mg/kg/day
LD50 [12]: 75 mg/kg/day
T/C [13]: 35%

CNC=O
Control tumor volume [14]: 2.7
Control tumor volume [15]: 2.7
Control tumor volume [16]: 2.7
Control tumor volume [17]: 2.7
Control death day [8]: 9.2
Control death day [18]: 9.2
Control death day [19]: 9.2
Control death day [20]: 9.2
Mean tumor volume [9]: 0.9
Mean day of death [10]: 11
T/C [21]: 120%
T/C [22]: 135%
T/C [23]: 178%
T/C [24]: 191%
Mean day of death [25]: 12.4
Mean day of death [26]: 16.4
Mean day of death [27]: 17.6
Mean tumor volume [28]: 0.3
Mean tumor volume [29]: 2.1
LD10 [30]: 220 mg/kg/day
LD50 [30]: 300 mg/kg/day
T/C [31]: 0%
T/C [32]: 70%
T/C [13]: 33%
T/C [33]: 11%

NC=O [FORMAMIDE]
Control tumor volume [15]: 2.1
Control death day [4]: 9.1
T/C [3]: 123%
Mean day of death [27]: 11.2
LD10 [34]: 200 mg/kg/day
LD50 [34]: 270 mg/kg/day
T/C [31]: 38%
Mean tumor volume [35]: 0.8

CN(C)C=O [DIMETHYLFORMAMIDE]
Control tumor volume [36]: 2.5
Mean tumor volume [37]: 1
LD10 [38]: 1130 mg/kg/day
LD50 [38]: 1280 mg/kg/day
T/C [39]: 40%

CNC(=O)ON(C(C)=O)C(=O)NC [CARACEMIDE]
Control tumor volume [7]: 2.4
Mean tumor volume [9]: 0.9
LD10 [40]: 53 mg/kg/day
LD50 [40]: 63 mg/kg/day
T/C [13]: 38%

CNC(=O)c1ccccc1
Control tumor volume [41]: 1.9
Mean tumor volume [42]: 0.8
LD10 [43]: 450 mg/kg/day
LD50 [43]: 650 mg/kg/day

O=CNCO
Control tumor volume [36]: 2.1
Mean tumor volume [37]: 0.8
LD10 [44]: 1580 mg/kg/day
LD50 [44]: 1930 mg/kg/day
T/C [39]: 38%
